Measured values as given in patent publication US9745310B2 (SK BIOPHARMACEUTICALS CO., LTD., priority 2015, dated 2017).

target: human mGluR5 receptor (Homo sapiens (Human), UniProt P41594); assay: Calcium influx assay based on fluorescence (mGluR5 PAM activity); conditions: human mGluR5 receptor-overexpressed HEK293 cell line; L-glutamate EC20; Fluo-4, FLIPR
Description: Efficacy as a positive allosteric modulator (PAM) of mGluR5 of the compounds of the Examples was tested as follows:
Calcium Influx Assay Based on Fluorescence
Ca^2+ (calcium) influx assay is an experiment for measuring the activity of a positive allosteric modulator of mGluR5 receptor in which human mGluR5 receptor-overexpressed HEK293 cell line is used. The day before the experiment, cells were prepared in a cell culture medium (DMEM, 5% FBS) with the density of 80,000/well, and 100 μl of cells were dispensed into each well of a poly-D-lysine-coated 96-well plate. Cells were incubated in a 5% CO2, 37° C. incubator. The next day, the cell culture medium was removed from the plate, and 100 μl of 1× Fluo-4 calcium indicator diluted with a buffer (1× Hank's balanced salt solution, 20 mM HEPES, 2.5 mM probenecid) were added to each well and incubated at 37° C. for 1 hour. The compound stock solutions were prepared in 100% DMSO, and the compounds were serially diluted with a ¼ dilution to 6 or 7 concentrations (final concentration was 10 μM to 10 nM). The diluted compound solutions were added to the plate with 0.1 to 0.2% of final DMSO concentration. 1 hour after the addition of Fluo-4 calcium indicator, L-glutamate (EC20 concentration) and the test compound solutions were added to the plate, and Ca^2+ reaction was then measured by FLIPR at room temperature. The activity of the compounds was standardized on the basis of the results of maximum value-minimum value of fluorescent reaction, and the activity value was calculated on the basis that no activity on glutamate EC20 is 0% and the reaction to glutamate maximum value is 100%.

Chain of human mGluR5 receptor (P41594 21-1212): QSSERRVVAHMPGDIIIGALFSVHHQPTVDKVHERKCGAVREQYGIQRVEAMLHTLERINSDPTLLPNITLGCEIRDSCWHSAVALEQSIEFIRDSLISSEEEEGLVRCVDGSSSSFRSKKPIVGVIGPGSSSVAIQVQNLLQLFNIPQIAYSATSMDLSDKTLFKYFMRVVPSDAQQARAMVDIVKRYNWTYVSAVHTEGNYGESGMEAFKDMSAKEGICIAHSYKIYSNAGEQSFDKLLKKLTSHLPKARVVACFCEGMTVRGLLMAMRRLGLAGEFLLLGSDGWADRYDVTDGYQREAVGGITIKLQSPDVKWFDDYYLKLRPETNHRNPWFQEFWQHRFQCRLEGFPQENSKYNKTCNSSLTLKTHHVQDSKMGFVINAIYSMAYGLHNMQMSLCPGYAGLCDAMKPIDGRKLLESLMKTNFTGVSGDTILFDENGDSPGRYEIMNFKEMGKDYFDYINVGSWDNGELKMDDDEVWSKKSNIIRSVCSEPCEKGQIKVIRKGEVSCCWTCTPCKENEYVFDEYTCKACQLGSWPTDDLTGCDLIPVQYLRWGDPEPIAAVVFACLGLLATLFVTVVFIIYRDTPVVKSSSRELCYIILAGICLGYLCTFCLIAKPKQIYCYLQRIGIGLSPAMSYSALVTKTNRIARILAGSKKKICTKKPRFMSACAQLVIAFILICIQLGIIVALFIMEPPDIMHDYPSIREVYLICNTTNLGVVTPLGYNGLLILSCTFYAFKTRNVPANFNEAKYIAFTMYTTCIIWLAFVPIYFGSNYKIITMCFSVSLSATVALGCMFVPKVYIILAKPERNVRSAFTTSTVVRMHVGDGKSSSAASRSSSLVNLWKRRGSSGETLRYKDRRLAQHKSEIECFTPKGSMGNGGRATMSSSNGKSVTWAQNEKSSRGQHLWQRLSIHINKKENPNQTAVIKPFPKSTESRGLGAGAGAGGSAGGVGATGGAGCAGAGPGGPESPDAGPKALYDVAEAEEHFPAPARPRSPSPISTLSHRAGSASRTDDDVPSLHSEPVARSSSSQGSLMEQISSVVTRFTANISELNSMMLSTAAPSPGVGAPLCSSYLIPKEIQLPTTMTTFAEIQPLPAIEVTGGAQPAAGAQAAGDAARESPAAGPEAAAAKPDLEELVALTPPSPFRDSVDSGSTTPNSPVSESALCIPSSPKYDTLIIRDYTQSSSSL

SMILES | EC50 [nM]
Nc1cccc(-c2cnc3nc(COc4ccccc4)cn3c2)c1 [Example 9, 6-(3-aminophenyl)-2-phenoxymethylimidazo[1,2-a]pyrimidine] | 500 to 1000
CN(C)c1ccccc1-c1cnc2nc(COc3ccccc3)cn2c1 [Example 14, 6-(2-dimethylaminophenyl)-2-phenoxymethylimidazo[1,2-a]pyrimidine] | 100 to 500
NC(=O)OCc1cc(F)ccc1-c1cnc2nc(COc3ccc(F)cc3)cn2c1 [Example 193, [5-fluoro-2-[2-[(4-fluorophenoxy)methyl]imidazo[1,2-a]pyrimidin-6-yl]phenyl]methyl carbamate] | 100 to 500
Fc1cccc(-c2cnc3nc(COc4ccccc4)cn3c2)c1F [Example 7, 6-(2,3-difluorophenyl)-2-phenoxymethylimidazo[1,2-a]pyrimidine] | 100 to 500
COc1cc(F)ccc1-c1cnc2nc(COc3cccnc3)cn2c1 [Example 147, 6-(4-fluoro-2-methoxyphenyl)-2-(pyridin-3-yloxymethyl)imidazo[1,2-a]pyrimidine] | 500 to 1000
Fc1ccc(OCc2cn3cc(-c4ccccc4)cnc3n2)cc1 [Example 56, 2-[(4-fluorophenoxy)methyl]-6-phenyl-imidazo[1,2-a]pyrimidine] | 100 to 500
Oc1ccccc1-c1cnc2nc(COc3ccc(F)cc3)cn2c1 [Example 63, 2-[2-[(4-fluorophenoxy)methyl]imidazo[1,2-a]pyrimidin-6-yl]phenol] | 100 to 500
Cc1ccccc1-c1cnc2nc(COc3ccc(F)cc3)cn2c1 [Example 60, 2-[(4-fluorophenoxy)methyl]6-(o-tolyl)imidazo[1,2-a]pyrimidine] | 100 to 500
Fc1ccc(OCc2cn3cc(-c4ccc(F)cn4)cnc3n2)cc1 [Example 85, 2-[(4-fluorophenoxy)methyl]-6-(5-fluoro-2-pyridyl)imidazo[1,2-a]pyrimidine] | 100 to 500
FCc1cc(F)ccc1-c1cnc2nc(COc3ccc(F)cc3)cn2c1 [Example 199, 6-[4-fluoro-2-(fluoromethyl)phenyl]-2-[(4-fluorophenoxy)methyl]imidazo[1,2-a]pyrimidine] | 100 to 500
COc1cc(F)ccc1-c1cnc2nc(COc3ccncc3)cn2c1 [Example 151, 6-(4-fluoro-2-methoxyphenyl)-2-(pyridin-4-yloxymethyl)imidazo[1,2-a]pyrimidine] | 100 to 500
Oc1ccc(-c2cnc3nc(COc4ccc(F)cc4)cn3c2)cn1 [Example 90, 5-[2-[(4-fluorophenoxy)methyl]imidazo[1,2-a]pyrimidin-6-yl]pyridin-2-ol] | 100 to 500
[2H]c1c([2H])c([2H])c(OCc2cn3cc(-c4ccc(F)cc4)cnc3n2)c([2H])c1[2H] [Example 59, 6-(4-fluorophenyl)-2-[(2,3,4,5,6-pentadeuteriophenoxy)methyl]imidazo[1,2-a]pyrimidine] | 100 to 500
Nc1cc(F)ccc1-c1cnc2nc(COc3cccc(F)c3)cn2c1 [Example 101, 5-fluoro-2-[2-[(3-fluorophenoxy)methyl]imidazo[1,2-a]pyrimidin-6-yl]aniline] | 100 to 500
Cc1cc(-c2cnc3nc(COc4ccccc4)cn3c2)cnc1F [Example 39, 6-(6-fluoro-5-methyl-3-pyridyl)-2-phenoxymethylimidazo[1,2-a]pyrimidine] | 100 to 500
Cc1ccccc1-c1cnc2nc(COc3cncc(F)c3)cn2c1 [Example 153, 6-(2-methylphenyl)-2-(5-fluoro-pyridin-3-yloxymethyl)imidazo[1,2-a]pyrimidine] | 100 to 500
Fc1ccc(OCc2cn3cc(-c4ccc(F)cc4F)cnc3n2)cc1 [Example 47, 6-(2,4-difluorophenyl)-2-(4-fluorophenoxymethyl)imidazo[1,2-a]pyrimidine] | 100 to 500
Cc1cc(F)ccc1-c1cnc2nc(COc3cncc(F)c3)cn2c1 [Example 154, 6-(4-fluoro-2-methylphenyl)-2-(5-fluoro-pyridin-3-yloxymethyl)imidazo[1,2-a]pyrimidine] | 100 to 500
Cc1ccc(-c2cnc3nc(COc4ccc(F)cc4)cn3c2)c(F)c1 [Example 64, 6-(2-fluoro-4-methyl-phenyl)-2-[(4-fluorophenoxy)methyl]imidazo[1,2-a]pyrimidine] | 500 to 1000
Fc1ccc(OCc2cn3cc(-c4cnccc4Cl)cnc3n2)cc1 [Example 87, 6-(4-chloro-3-pyridyl)-2-[(4-fluorophenoxy)methyl]imidazo[1,2-a]pyrimidine] | 500 to 1000

Other lines, results leading:

EC50 [nM] | SMILES
100 to 500 | N#Cc1ccc(-c2cnc3nc(COc4ccccn4)cn3c2)cc1 [Example 140, 4-[2-(2-pyridyloxymethyl)imidazo[1,2-a]pyrimidin-6-yl]benzonitrile]
100 to 500 | Oc1cc(F)ccc1-c1cnc2nc(COc3ccnc(F)c3)cn2c1 [Example 167, 6-(4-fluoro-2-hydroxyphenyl)-2-(2-fluoropyridin-4-yloxymethyl)imidazo[1,2-a]pyrimidine]
100 to 500 | Cc1c(F)cccc1-c1cnc2nc(COc3ccccn3)cn2n1 [Example 187, 2-(3-fluoro-2-methyl-phenyl)-6-(2-pyridyloxymethyl)imidazo[1,2-b][1,2,4]triazine]
100 to 500 | Cc1cc(F)ccc1-c1cnc2nc(COc3ccc(F)cn3)cn2c1 [Example 114, 6-(4-fluoro-2-methyl-phenyl)-2-[(5-fluoro-2-pyridyl)oxymethyl)imidazo[1,2-a]pyrimidine]
500 to 1000 | Oc1cc(F)ccc1-c1cnc2nc(COc3cccnc3)cn2c1 [Example 150, 6-(4-fluoro-2-hydroxyphenyl)-2-(pyridin-3-yloxymethyl)imidazo[1,2-a]pyrimidine]
100 to 500 | Fc1ccc(-c2cnc3nc(COc4ccccn4)cn3c2)cc1 [Example 102, 6-(4-fluorophenyl)-2-(pyridin-2-yloxymethyl)imidazo[1,2-a]pyrimidine]
100 to 500 | Fc1ccc(-c2cnc3nc(COc4ccccn4)cn3n2)c(C(F)(F)F)c1 [Example 186, 2-[4-fluoro-2-(trifluoromethyl)phenyl]-6-(2-pyridyloxymethyl)imidazo[1,2-b][1,2,4]triazine]
100 to 500 | Fc1ccc(-c2cnc3nc(COc4ccnc(F)c4)cn3c2)c(F)c1 [Example 161, 6-(2,4-difluorophenyl)-2-(2-fluoropyridin-4-yloxymethyl)imidazo[1,2-a]pyrimidine]
100 to 500 | CSc1cc(F)ccc1-c1cnc2nc(COc3ccccc3)cn2c1 [Example 26, 6-(4-fluoro-2-methylthiophenyl)-2-phenoxymethylimidazo[1,2-a]pyrimidine]
100 to 500 | Fc1ccc(OCc2cn3cc(-c4ccc(F)cc4C(F)(F)F)cnc3n2)nc1 [Example 119, 2-[(5-fluoro-2-pyridyl)oxymethyl]-6-[4-fluoro-2-(trifluoromethyl)phenyl]imidazo[1,2-a]pyrimidine]
100 to 500 | Cc1ccccc1-c1cnc2nc(COc3ccccn3)cn2c1 [Example 103, 6-(2-methylphenyl)-2-(pyridin-2-yloxymethyl)imidazo[1,2-a]pyrimidine]
100 to 500 | Fc1cccc(OCc2cn3cc(-c4cccnc4F)cnc3n2)c1 [Example 82, 2-[(3-fluorophenoxy)methyl]-6-(2-fluoro-3-pyridyl)imidazo[1,2-a]pyrimidine]
500 to 1000 | COc1cc(C#N)ccc1-c1cnc2nc(COc3ccccn3)cn2c1 [Example 136, 3-methoxy-4-[2-(2-pyridyloxymethyl)imidazo[1,2-a]pyrimidin-6-yl]benzonitrile]
500 to 1000 | Fc1ccnc(OCc2cn3cc(-c4cccc(F)c4F)cnc3n2)c1 [Example 122, 6-(2,3-difluorophenyl)-2-[(4-fluoro-2-pyridyl)oxymethyl)imidazo[1,2-a]pyrimidine]
100 to 500 | Fc1ccc(OCc2cn3cc(-c4ccc(C(F)(F)F)nc4)cnc3n2)nc1 [Example 131, 2-[(5-fluoro-2-pyridyl)oxymethyl]-6-[6-(trifluoromethyl)-3-pyridyl]imidazo[1,2-a]pyrimidine]
500 to 1000 | Fc1ccc(-c2cnc3nc(COc4ccc(F)cn4)cn3c2)cc1 [Example 129, 6-(4-fluorophenyl)-2-[(5-fluoro-2-pyridyl)oxymethyl)imidazo[1,2-a]pyrimidine]
100 to 500 | Fc1ccc(-c2cnc3nc(COc4ccccn4)cn3c2)c(F)c1 [Example 105, 6-(2,4-difluorophenyl)-2-(pyridin-2-yloxymethyl)imidazo[1,2-a]pyrimidine]
100 to 500 | Oc1ccccc1-c1cnc2nc(COc3ccnc(F)c3)cn2c1 [Example 169, 6-(2-hydroxyphenyl)-2-(2-fluoropyridin-4-yloxymethyl)imidazo[1,2-a]pyrimidine]
500 to 1000 | Cc1ccc(-c2cnc3nc(COc4ccc(F)cn4)cn3c2)c(C)c1 [Example 128, 6-(2,4-dimethylphenyl)-2-[(5-fluoro-2-pyridyl)oxymethyl)imidazo[1,2-a]pyrimidine]
100 to 500 | COCc1cc(F)ccc1-c1cnc2nc(COc3ccccn3)cn2c1 [Example 141, 6-[4-fluoro-2-(methoxymethyl)phenyl]-2-(2-pyridyloxymethyl)imidazo[1,2-a]pyrimidine]
